# Measured values reported in US4925968A, “N-acyl-N-naphthoylglycines as aldose reductase inhibitors” (American Home Products Corporation, priority 1989, dated 1990).
# Tested on: aldose reductase
# Assay: galactitol (dulcitol) accumulation in lens, sciatic nerve and diaphragm of galactosemic rats
# Format: in vivo, rat (Sprague-Dawley, male)
# Settings: 4 days; for % Lowering dulcitol accumulation IN VIVO, D: diaphragm; for % Lowering dulcitol accumulation IN VIVO, L: lens
# Text: Such experiments are exemplified hereinbelow after the listing of the following general comments pertaining to these experiments: (a) Four or more groups of six male rats, 50-70 g, Sprague-Dawley strain, were used. The first group, the control group, was fed a mixture of laboratory chow (rodent Laboratory Chow, Purina) and glucose at 20% (w/w %) concentration. […] The test compound was either admixed to the diet or administered by gavage. In experiments involving compound administration in the diet, the average dose administered was calculated from the actual food intake of the animals in each group. The concentration of galactose in the diet of the treated groups was the same as that for the untreated galactosemic group. (b) After four days, the animals were killed by decapitation. The eyeballs were removed and punctured with a razor blade; the freed lenses were rolled gently on filter paper and weighed. The sciatic nerves were dissected as completely as possible and weighed. Both tissues when frozen can be kept up to two weeks before being analyzed for galactitol. […] Only two minor reagent changes were made: (a) The rinsing mixture was an aqueous 5% (w/v) trichloroacetic acid solution and (b) the stock solution was prepared by dissolving 25 mg of dulcitol in 100 mL of an aqueous trichloroacetic acid solution. [N.B.: For each experiment the average value found in the tissue from rats fed the glucose diet was subtracted from the individual values found in the corresponding tissue in galactose-fed rats to obtain the amount of polyol accumulated.] […] In the present case the procedure of Hayman and Kinoshita was modified in that the final chromatography step was omitted in the preparation of the enzyme from bovine lens. […] The figures under L, N, and D represent the percentage decrease of galactitol accumulation in the tissues of the lens, sciatic nerve, and diaphragm, respectively, for treated rats as compared to untreated rats.
smiles,measurement,setting,value
COc1ccc2c(C(=O)N(CC(=O)O)C(=O)OCC(C)(C)C)cccc2c1C(F)(F)F [Example 5],"% Lowering dulcitol accumulation IN VIVO, D",105 mg/kg,N.S.
same,"% Lowering dulcitol accumulation IN VIVO, L",105 mg/kg,N.S.
"COc1ccc2c(C(=O)N(CC(=O)O)C(=O)c3ccccc3)cccc2c1C(F)(F)F [Example 10, N-Benzoyl-N-[[6-methoxy-5-(trifluoromethyl)-1-naphthalenyl]carbonyl]glycine]","% Lowering dulcitol accumulation IN VIVO, D",50 mg/kg,N.S.
same,"% Lowering dulcitol accumulation IN VIVO, L",50 mg/kg,N.S.
COc1ccc2c(C(=O)N(CC(=O)O)C(=O)OCc3ccc(Cl)c([N+](=O)[O-])c3)cccc2c1C(F)(F)F [Example 7],"% Lowering dulcitol accumulation IN VIVO, D",107 mg/kg,N.S.
same,"% Lowering dulcitol accumulation IN VIVO, L",107 mg/kg,N.S.
CCCOC(=O)N(CC(=O)O)C(=O)c1cccc2c(C(F)(F)F)c(OC)ccc12 [Example 3],"% Lowering dulcitol accumulation IN VIVO, D",48 mg/kg,N.S.
same,"% Lowering dulcitol accumulation IN VIVO, L",48 mg/kg,N.S.
COc1ccc2c(C(=O)N(CC(=O)O)C(=O)OCc3ccccc3)cccc2c1C(F)(F)F [Example 6],"% Lowering dulcitol accumulation IN VIVO, D",67 mg/kg,N.S.
same,"% Lowering dulcitol accumulation IN VIVO, L",67 mg/kg,N.S.
COc1ccc2c(C(=O)N(CC(=O)O)C(=O)OC(C)C)cccc2c1C(F)(F)F [Example 4],"% Lowering dulcitol accumulation IN VIVO, D",dose (mg/kg) printed as N.S.,N.S.
same,"% Lowering dulcitol accumulation IN VIVO, L",dose (mg/kg) printed as N.S.,N.S.
O=CN(CC(=O)O)C(=O)c1cccc2c(Br)cccc12 [Example 14],"% Lowering dulcitol accumulation IN VIVO, D",104 mg/kg,17%
same,"% Lowering dulcitol accumulation IN VIVO, L",104 mg/kg,N.S.
"CCOC(=O)N(CC(=O)O)C(=O)c1cccc2c(C(F)(F)F)c(OC)ccc12 [Example 1, N-[[6-Methoxy-5-(trifluoromethyl)-1-naphthalenyl]carbonyl]-N-[(ethoxy)carbonyl]glycine]","% Lowering dulcitol accumulation IN VIVO, D",57 mg/kg,70%
same,"% Lowering dulcitol accumulation IN VIVO, D",97 mg/kg,83%
same,"% Lowering dulcitol accumulation IN VIVO, L",57 mg/kg,19%
same,"% Lowering dulcitol accumulation IN VIVO, L",97 mg/kg,12%
CC(=O)N(CC(=O)O)C(=O)c1cccc2c(Br)cccc12 [Example 15],"% Lowering dulcitol accumulation IN VIVO, D",112 mg/kg,N.S.
same,"% Lowering dulcitol accumulation IN VIVO, L",112 mg/kg,N.S.
COc1ccc2c(C(=O)N(CC(=O)O)C(C)=O)cccc2c1C(F)(F)F [Example 9],"% Lowering dulcitol accumulation IN VIVO, D",100 mg/kg,39%
same,"% Lowering dulcitol accumulation IN VIVO, L",100 mg/kg,N.S.
"COC(=O)N(CC(=O)O)C(=O)c1cccc2c(C(F)(F)F)c(OC)ccc12 [Example 2, N-[[6-Methoxy-5-(trifluoromethyl)-1-naphthalenyl]-carbonyl]-N-[(methoxy)carbonyl]glycine]","% Lowering dulcitol accumulation IN VIVO, D",48 mg/kg,54%
same,"% Lowering dulcitol accumulation IN VIVO, L",48 mg/kg,N.S.
"COc1ccc2c(C(=O)N(C=O)CC(=O)O)cccc2c1C(F)(F)F [Example 8, N-Formyl-N-[[6-methoxy-5-(trifluoromethyl)-1-naphthalenyl]carbonyl]glycine]","% Lowering dulcitol accumulation IN VIVO, D",107 mg/kg,82%
same,"% Lowering dulcitol accumulation IN VIVO, L",107 mg/kg,13%
O=C(O)CN(C(=O)c1ccccc1)C(=O)c1cccc2c(Br)cccc12 [Example 16],"% Lowering dulcitol accumulation IN VIVO, D",111 mg/kg,N.S.
same,"% Lowering dulcitol accumulation IN VIVO, L",111 mg/kg,N.S.
COC(=O)N(CC(=O)O)C(=O)c1cccc2c(Br)cccc12 [Example 12],"% Lowering dulcitol accumulation IN VIVO, D",102 mg/kg,24%
same,"% Lowering dulcitol accumulation IN VIVO, L",102 mg/kg,N.S.
